# Publication PMC6792352, “Limited Chemical Structural Diversity Found to Modulate Thyroid Hormone Receptor in the Tox21 Chemical Library” (Environmental Health Perspectives, 2019)
# Where a name gives a salt, the structure may show the parent alone.
# Test: in vitro
# Conditions: rat, gh3-tre-luc cells, AC50 (uM) modified / 1000
row,SMILES,CC50 at 24 h [µM]
1,CCCCC(CC)COC(=O)c1ccc(N(C)C)cc1 (stereo not drawn) [2-Ethylhexyl 4-(dimethylamino)benzoate],> 90
2,C=C(C)c1cccc(C(C)(C)N=C=O)c1 [1-(2-Isocyanatopropan-2-yl)-3-(prop-1-en-2-yl)benzene],> 90
3,"Cc1cc(C)cc(O)c1 [3,5-Dimethylphenol]",> 90
4,Cc1ccc(C(N)=O)cc1N [3-Amino-4-methylbenzamide],> 90
5,O=C(O)c1cc(=O)[nH]c(=O)[nH]1 [Orotic acid],> 90
6,CC12CC3CC(C)(C1)CC(N)(C3)C2 [Memantine],38.1
7,NC(=O)Nc1nc2ccccc2[nH]1 [2-Benzimidazolylurea],> 90
8,CCCc1nn(C)c2c(=O)[nH]c(-c3cc(S(=O)(=O)N4CCN(C)CC4)ccc3OCC)nc12 [Sildenafil citrate],> 50
9,Cc1ccccc1C(=O)O [2-Methylbenzoic acid],> 90
10,C[C@@H](CN1CC(=O)NC(=O)C1)N1CC(=O)NC(=O)C1 [Dexrazone],> 50
11,Nc1cc(Cl)c([N+](=O)[O-])cc1O [2-Amino-4-chloro-5-nitrophenol],36.9
12,"O=C(OCCCCCCOC(=O)c1ccccc1)c1ccccc1 [Hexane-1,6-diyl dibenzoate]",> 90
13,c1ccc(CCCc2ccccn2)cc1 [2-(3-Phenylpropyl)pyridine],> 90
14,Cc1c(NC(=O)c2cccnc2)c(=O)n(-c2ccccc2)n1C [Nifenazone],> 20
15,C=CC(C)(CCC=C(C)C)OC(=O)c1ccccc1 (stereo not drawn) [Linalyl benzoate],53.7
16,O=[N+]([O-])c1cccc(S(=O)(=O)NCCNS(=O)(=O)c2cccc([N+](=O)[O-])c2)c1 [Dinsed],> 50
17,CCN(CCO)CCCC(C)Nc1ccnc2cc(Cl)ccc12 (stereo not drawn) [Hydroxychloroquine sulfate],> 50
18,CCC(C)COC(=O)CC(C)C (stereo not drawn) [2-Methylbutyl isovalerate],> 90
19,NCCS(=O)(=O)O [l-Taurine],29.5
20,CCCCc1ccc2c(n1)[C@@H](c1ccc(OC)cc1C[C@H](C)C(=O)O)[C@H](C(=O)O)[C@H]2c1ccc2c(c1)OCO2 [MK-547],> 90
21,O=[N+]([O-])c1ccc2c3c(cccc13)CC2 [5-Nitroacenaphthene],> 90
22,CC[C@@H](CO)NCCN[C@@H](CC)CO [Ethambutol dihydrochloride],> 20
23,CN(C)CCOC1=Cc2ccccc2Sc2ccc(Cl)cc21 [Zotepine],6.89
24,COc1cc(NS(C)(=O)=O)ccc1Nc1c2ccccc2nc2ccccc12 [Amsacrine hydrochloride],0.432
25,NC(=O)C[C@@H](N)C(=O)O [D-Asparagine hydrate],> 50
26,OCCCc1ccccc1 [3-Phenyl-1-propanol],> 50
27,"CC(=O)C1CCCCC1=O (stereo not drawn) [Cyclohexanone,2-acetyl-]",> 90

row,SMILES,CC50 at 24 h [µM]
1,CCCCC(O)(Cn1cncn1)c1ccc(Cl)cc1Cl (stereo not drawn) [Hexaconazole],54.6
2,CO/N=C(\C(=O)N[C@@H]1C(=O)N2C(C(=O)O)=C(CSc3nc(C)c(CC(=O)O)s3)CS[C@H]12)c1csc(N)n1 [Cefodizime sodium],> 50
3,CC(=O)Oc1cccc(C)c1 [m-Cresyl acetate],> 50
4,NC[C@@H]1CC[C@@H](N)[C@@H](O[C@H]2[C@H](O)[C@@H](O[C@H]3O[C@H](CO)[C@@H](O)[C@H](N)[C@H]3O)[C@H](N)C[C@@H]2N)O1 [Dibekacin],> 50
5,Cc1ccc(C(=O)c2ccccc2)cc1 [4-Methylbenzophenone],> 90
6,CC(C)C1(C)N=C(c2nc3ccccc3cc2C(=O)O)NC1=O (stereo not drawn) [Imazaquin],> 90
7,CCCOc1ccc(C(=O)OCCN(CC)CC)cc1N [Proparacaine hydrochloride],> 50
8,"Cc1cccc(N)c1N [2,3-Diaminotoluene]",> 90
9,c1ccc2c(c1)-c1cccc3cccc-2c13 [Fluoranthene],> 90
10,CCCCCCCCCC(=O)OCC [Ethyl decanoate],> 90
11,CC(=O)Nc1ccccc1C [N-Acetyl-o-toluidine],> 100
12,CCCN1CCC[C@@H]2Cc3nc(N)ncc3C[C@H]21 [Quinelorane],> 50
13,CCO[Si](CC)(OCC)OCC [Ethyltriethoxysilane],> 90
14,CC(=O)C(C)C [3-Methyl-2-butanone],> 100
15,NCCO [2-Hydroxyethylammonium formate],> 90
16,CCCCCCCCCC(C)C=O (stereo not drawn) [2-Methylundecanal],> 90
17,CC(C)Cc1ccccc1 [Isobutylbenzene],> 90
18,"O=C1NC(=O)c2ccccc21 [Potassium 1,3-dioxo-1,3-dihydroisoindol-2-ide]",> 90
19,CCCC(CCC)C(=O)OC1C[C@H]2CC[C@@H](C1)[N+]2(C)C (stereo partly drawn) [Anisotropine methylbromide],> 50
20,c1ccc(Cc2ccccc2)cc1 [Diphenylmethane],> 90
21,CN(C)CCCSc1ccccc1NC(=O)/C=C/c1ccccc1 [Cinanserin],22.6
22,c1ccc2scnc2c1 [Benzothiazole],> 90
23,CC(C)Cn1cnc2c1c(=O)n(C)c(=O)n2C [Isbufylline],> 50
24,CCCCCC1=CCCC1=O [2-Pentyl-2-cyclopenten-1-one],> 90
25,CCCCCc1ccc(N)cc1 [4-Pentylaniline],> 90
26,N[C@H](CO)C(=O)O [D-Serine],> 50
27,"Clc1cc(Cl)cc(Cl)c1 [1,3,5-Trichlorobenzene]",> 90

row,SMILES,CC50 at 24 h [µM]
1,Sc1ccccc1 [Benzenethiol],> 90
2,Nc1ccc(S(=O)(=O)Nc2ccccn2)cc1 [Sulfapyridine],> 20
3,"CCN(CC)/[N+]([O-])=N/O [1,1-Diethyl-2-hydroxy-2-nitrosohydrazine diethylamine]",> 50
4,NC(=O)c1cc[n+](CC2=C(C(=O)[O-])N3C(=O)[C@@H](NC(=O)Cc4cccs4)[C@H]3SC2)cc1 [Cefalonium],> 20
5,C[C@H]1CC[C@]2(NC1)O[C@H]1C[C@H]3[C@@H]4CC[C@H]5C[C@@H](O[C@@H]6O[C@H](CO)[C@H](O[C@@H]7O[C@H](CO)[C@@H](O)[C@H](O[C@@H]8OC[C@@H](O)[C@H](O)[C@H]8O)[C@H]7O[C@@H]7O[C@H](CO)[C@@H](O)[C@H](O)[C@H]7O)[C@H](O)[C@H]6O)CC[C@]5(C)[C@H]4CC[C@]3(C)[C@H]1[C@@H]2C [alpha-Tomatine],2.38
6,CCCOC(=O)NCCCN(C)C [Propamocarb hydrochloride],> 90
7,CCCCCCCCCCCCN1CCOCC1 [4-Dodecylmorpholine],> 90
8,O=C(O)c1cc(/N=N/c2ccc(S(=O)(=O)Nc3ccccn3)cc2)ccc1O [Sulfasalazine],> 90
9,CCCCCCC(=O)OCC [Ethyl heptanoate],> 90
10,Cc1cc(Cl)ccc1OC(C)C(=O)O (stereo not drawn) [Mecoprop],> 90
11,Cc1cn([C@H]2C[C@H](N=[N+]=[N-])[C@@H](CO)O2)c(=O)[nH]c1=O [3'-Azido-3'-deoxythymidine],> 90
12,O=C(NS(=O)(=O)/C=C/c1ccccc1)c1ccc(F)cc1Cl [PharmaGSID_48516],> 90
13,Cn1cnc2ncnc(N)c21 [7-Methyladenine],> 50
14,CN[C@H]1CC[C@@H](c2ccc(Cl)c(Cl)c2)c2ccccc21 [Sertraline hydrochloride],7.85
15,CC/C=C\C/C=C\C/C=C\C/C=C\C/C=C\CCCC(=O)O [Eicosapentaenoic acid],> 50
16,C=COCCCCO [4-(Ethenyloxy)butan-1-ol],> 90
17,COc1cccc(C(=O)CCN[C@@H](C)[C@H](O)c2ccccc2)c1 [l-Oxyfedrine hydrochloride],13.4
18,"CNC(=S)NC [N,N'-Dimethylthiourea]",> 90
19,CCCCCCCC/C=C\CCCCCCCC(=O)O [Oleic acid],> 90
20,CCCCCCCCN[C@@H](C)[C@H](O)c1ccc(SC(C)C)cc1 (racemic) [Suloctdil],4.84
21,CCC(=O)OCc1ccc(OC)cc1 [Anisyl propionate],> 90
22,CCc1c2c(nc3ccc(OC(=O)N4CCC(N5CCCCC5)CC4)cc13)-c1cc3c(c(=O)n1C2)COC(=O)[C@]3(O)CC [Irinotecan hydrochloride],> 50
23,CCC(C)C1CCCCC1=O (stereo not drawn) [2-sec-Butylcyclohexanone],> 90
24,Cc1c(C(C)C)c(=O)n(-c2ccccc2)n1C [Propyphenazone],> 50
25,CCCCC(CC)COC(=O)CS (stereo not drawn) [2-Ethylhexyl sulfanylacetate],> 90
26,CCC(C)=O [Methyl ethyl ketone],> 90

# Same assay, conditions: rat, gh3-tre-luc cells, AC50 (uM) modified / 1000, Tox21_110001=Tox21_111817; viability, 1 nM T3 present, 24 h
row,SMILES,CC50 at 24 h [µM]
1,O=C1C[N+]([O-])=C(c2ccccc2)c2cc(Cl)ccc2N1 [Demoxepam],> 50

# Same assay, conditions: rat, gh3-tre-luc cells, AC50 (uM) modified / 1000, Tox21_110001=Tox21_112027; viability, 1 nM T3 present, 24 h
row,SMILES,CC50 at 24 h [µM]
1,COc1ccc2c3c1O[C@H]1[C@@H](O)C=C[C@H]4[C@@H](C2)NCC[C@@]341 [Norcodeine],> 50

# Same assay, conditions: rat, gh3-tre-luc cells, AC50 (uM) modified / 1000, Tox21_110001=Tox21_201036; viability, 1 nM T3 present, 24 h
row,SMILES,CC50 at 24 h [µM]
1,OCCBr [2-Bromo-1-ethanol],> 90

# Same assay, conditions: rat, gh3-tre-luc cells, AC50 (uM) modified / 1000, Tox21_110001=Tox21_201354; viability, 1 nM T3 present, 24 h
row,SMILES,CC50 at 24 h [µM]
1,C=C(C)C#N [Methacrylonitrile],> 100

# Same assay, conditions: rat, gh3-tre-luc cells, AC50 (uM) modified / 1000, Tox21_110001=Tox21_300700; viability, 1 nM T3 present, 24 h
row,SMILES,CC50 at 24 h [µM]
1,COP(=S)(OC)Oc1nc(Cl)c(Cl)cc1Cl [Chlorpyrifos-methyl],> 90

# Same assay, conditions: rat, gh3-tre-luc cells, AC50 (uM) modified / 1000, Tox21_110001=Tox21_302121; viability, 1 nM T3 present, 24 h
row,SMILES,CC50 at 24 h [µM]
1,"ClCCCCCCCl [1,6-Dichlorohexane]",> 90

# Same assay, conditions: rat, gh3-tre-luc cells, AC50 (uM) modified / 1000, Tox21_110001=Tox21_303172; viability, 1 nM T3 present, 24 h
row,SMILES,CC50 at 24 h [µM]
1,C=C(C)C#N [Methacrylonitrile],> 90
